Source: ChEMBL document CHEMBL2380205, “Discovery of a new class of natural product-inspired quinazolinone hybrid as potent antileishmanial agents” (J Med Chem, 2013)
pIC50: −log10 of the molar value.

How the values were obtained:
Leishmania donovani [1] = assay: Antileishmanial activity against amastigotes of Leishmania donovani MHOM/IN/60/Dd8 infected in mouse J-774A.1 cells after 72 hrs by luciferase reporter gene assay; assay type: functional, organism-based; settings: MHOM/IN/60/Dd8, J774.A1, 72 h
Leishmania donovani [2] = assay: Antileishmanial activity against promastigotes of Leishmania donovani MHOM/IN/60/Dd8 after 72 hrs by luciferase reporter gene assay; assay type: functional, organism-based; settings: MHOM/IN/60/Dd8, 72 h
[3] = Lipophilicity, log P of the compound; assay type: physicochemical; settings: octanol/water
[4] = Cytotoxicity against mouse J774A1 cells after 72 hrs by MTT assay; assay type: cell-based, J774.A1
Leishmania donovani [5] = assay: Antileishmanial activity against amastigotes of Leishmania donovani MHOM/IN/60/Dd8 infected in golden hamster assessed as amastigote count at 50 mg/kg/day, ip administered for 5 days measured on day 7 of post last dose by Giemsa staining; assay type: functional; settings: MHOM/IN/60/Dd8, ip, route intraperitoneal
[6] = Selectivity index, ratio of CC50 for mouse J774A1 cells to IC50 for amastigotes of Leishmania donovani MHOM/IN/60/Dd8 infected in mouse J-774A.1 cells; assay type: functional, J774.A1
[7] = Cytotoxicity against african green monkey Vero cells after 72 hrs by MTT assay; assay type: cell-based; settings: chlorocebus sabaeus

Compound | pIC50 (Leishmania donovani [1]) | pIC50 (Leishmania donovani [2]) | logP [3] | CC50 at 72 h [4] | inhibition in vivo at 50 mg/kg/day (Leishmania donovani [5]) | Ratio CC50/IC50 [6] | CC50 at 72 h [7]
COc1ccc(C(Nc2ccc(C3(C)NC(=O)c4ccccc4N3)cc2)c2nnnn2C(C)(C)C)c2ccccc12 (stereo not given) | 4.81 | 5.59 |  |  |  |  | 
Nc1nc(-c2ccc(F)cc2)cc(-c2ccc(C3NC(=O)c4ccccc4N3)cc2)n1 (stereo not given) | 4.61 | 5.01 |  |  |  |  | 
COc1ccc(C(C(=O)NC(C)(C)C)N(C(=O)c2cccc(Cl)c2)c2ccc(C3(C)NC(=O)c4ccccc4N3)cc2)cc1 (stereo not given) | 4.53 | < 4.40 |  |  |  |  | 
Nc1nc(-c2ccc(Cl)cc2)cc(-c2ccc(C3NC(=O)c4ccccc4N3)cc2)n1 (stereo not given) | 5.72 | 5.51 | 4.49 | 82.2 µM | 35.8% | 43.46 | 323 µM
CCCNc1nc(NCCC)nc(Nc2ccc(C3(C)NC(=O)c4ccccc4N3)cc2)n1 (stereo not given) | 5.05 | 5.05 |  | > 400 µM |  | >45.09 | > 400 µM
CC1(c2ccc(NC(c3ccc(Cl)cc3)c3nnnn3C3CCCCC3)cc2)NC(=O)c2ccccc2N1 (stereo not given) | 4.95 | 4.40 |  | > 400 µM |  | >35.3 | > 400 µM
COc1ccc(-c2cc(-c3ccc(C4NC(=O)c5ccccc5N4)cc3)nc(N)n2)cc1 (stereo not given) | 5.00 | 5.24 |  | 178 µM |  | 17.64 | 124 µM
CC(C)(C)n1nnnc1C(NCc1ccccc1)c1ccc(C2NC(=O)c3ccccc3N2)cc1 (stereo not given) | < 4.40 | 5.44 |  |  |  |  | 
CC1(c2ccc(NC(c3ccc(F)cc3)c3nnnn3C(C)(C)C)cc2)NC(=O)c2ccccc2N1 (stereo not given) | < 4.70 | 5.43 |  |  |  |  | 
CC(C)(C)NC(=O)C(c1ccc(Cl)cc1)N(C(=O)c1cccc(Cl)c1)c1ccc(C2(C)NC(=O)c3ccccc3N2)cc1 (stereo not given) | 4.87 | < 4.40 |  | > 400 µM |  | >29.67 | > 400 µM
COc1cc(-c2cc(-c3ccc(C4NC(=O)c5ccccc5N4)cc3)nc(N)n2)cc(OC)c1OC (stereo not given) | 5.42 | 5.46 |  | 103 µM |  | 26.97 | 85.9 µM
COc1ccc(C(Nc2ccc(C3(C)NC(=O)c4ccccc4N3)cc2)c2nnnn2C(C)(C)C)cc1 (stereo not given) | 4.88 | 5.52 |  | > 400 µM |  | >30.65 | > 400 µM
CC(C)c1ccc(C(C(=O)NC(C)(C)C)N(C(=O)c2cccc(Cl)c2)c2ccc(C3(C)NC(=O)c4ccccc4N3)cc2)cc1 (stereo not given) | 4.92 | < 4.40 |  | > 400 µM |  | >33.25 | > 400 µM
CC(C)(C)NC(=O)C(c1ccc(Br)cc1)N(C(=O)c1cccc(Cl)c1)c1ccc(C2(C)NC(=O)c3ccccc3N2)cc1 (stereo not given) | 4.81 | < 4.40 |  |  |  |  | 
CC1(c2ccc(Nc3nc(NCc4ccco4)nc(NCc4ccco4)n3)cc2)NC(=O)c2ccccc2N1 (stereo not given) | < 4.70 | 4.88 |  |  |  |  | 
COc1ccc(C(Nc2ccc(C3(C)NC(=O)c4ccccc4N3)cc2)c2nnnn2C2CCCCC2)cc1 (stereo not given) | 4.78 | < 4.40 |  |  |  |  | 
CC(C)c1ccc(C(Nc2ccc(C3(C)NC(=O)c4ccccc4N3)cc2)c2nnnn2C2CCCCC2)cc1 (stereo not given) | 5.04 | 5.15 |  | > 400 µM |  | >44.1 | > 400 µM
CC1(c2ccc(NC(c3ccc(Br)cc3)c3nnnn3C(C)(C)C)cc2)NC(=O)c2ccccc2N1 (stereo not given) | 5.07 | 4.62 |  | 400 µM |  | 47.28 | > 400 µM
CC1(c2ccc(NC(c3cccc4ccccc34)c3nnnn3C(C)(C)C)cc2)NC(=O)c2ccccc2N1 (stereo not given) | < 4.70 | 5.41 |  |  |  |  | 
Nc1nc(-c2ccc(Br)cc2)cc(-c2ccc(C3NC(=O)c4ccccc4N3)cc2)n1 (stereo not given) | 5.15 | 5.55 |  | 125 µM |  | 17.82 | > 400 µM
CC1(c2ccc(NC(c3ccc(Cl)cc3)c3nnnn3C(C)(C)C)cc2)NC(=O)c2ccccc2N1 (stereo not given) | 5.15 | 5.92 |  | > 400 µM |  | >56.65 | > 400 µM

Compound | pIC50 (Leishmania donovani [1]) | pIC50 (Leishmania donovani [2]) | logP [3] | CC50 at 72 h [4] | inhibition in vivo at 50 mg/kg/day (Leishmania donovani [5]) | Ratio CC50/IC50 [6] | CC50 at 72 h [7]
Nc1nc(-c2ccccc2)cc(-c2ccc(C3NC(=O)c4ccccc4N3)cc2)n1 (stereo not given) | 4.77 | 5.39 |  |  |  |  | 
CCCCNc1nc(NCCCC)nc(Nc2ccc(C3(C)NC(=O)c4ccccc4N3)cc2)n1 (stereo not given) | 5.32 | 5.11 |  | 40.1 µM |  | 8.35 | 142 µM
CC1(c2ccc(Nc3nc(NCCCN4CCOCC4)nc(NCCCN4CCOCC4)n3)cc2)NC(=O)c2ccccc2N1 (stereo not given) | < 4.40 | < 4.40 |  |  |  |  | 
COc1cccc(-c2cc(-c3ccc(C4NC(=O)c5ccccc5N4)cc3)nc(N)n2)c1OC (stereo not given) | 5.35 | 5.37 |  | > 400 µM |  | >90.29 | > 400 µM
CC1(c2ccc(Nc3nc(Nc4ccccc4)nc(Nc4ccccc4)n3)cc2)NC(=O)c2ccccc2N1 (stereo not given) |  | 5.52 |  |  |  |  | 
COc1cc(C(Nc2ccc(C3(C)NC(=O)c4ccccc4N3)cc2)c2nnnn2C(C)(C)C)cc(OC)c1OC (stereo not given) | < 4.40 | < 4.40 |  |  |  |  | 
CC1(c2ccc(Nc3nc(N4CCOCC4)nc(N4CCOCC4)n3)cc2)NC(=O)c2ccccc2N1 (stereo not given) | < 4.40 | < 4.40 |  |  |  |  | 
CC1(c2ccc(Nc3nc(N4CCC(O)CC4)nc(N4CCC(O)CC4)n3)cc2)NC(=O)c2ccccc2N1 (stereo not given) | < 4.40 | < 4.40 |  |  |  |  | 
CC1(c2ccc(NC(c3ccncc3)c3nnnn3C(C)(C)C)cc2)NC(=O)c2ccccc2N1 (stereo not given) | < 4.40 | < 4.40 |  |  |  |  | 
Nc1nc(-c2ccc(C3NC(=O)c4ccccc4N3)cc2)cc(-c2ccccc2Cl)n1 (stereo not given) | 4.82 | 5.05 |  |  |  |  | 
CC(C)(C)Nc1nc(Nc2ccc(C3(C)NC(=O)c4ccccc4N3)cc2)nc(NC(C)(C)C)n1 (stereo not given) | 5.26 | 5.99 |  | 60.7 µM |  | 11.07 | 159 µM
CC1(c2ccc(N(C(=O)c3cccc(Cl)c3)C(C(=O)NC3CCCCC3)c3ccc(Cl)cc3)cc2)NC(=O)c2ccccc2N1 (stereo not given) | 4.80 | 4.40 |  |  |  |  | 
COc1ccc(CNc2nc(NCc3ccc(OC)cc3)nc(Nc3ccc(C4(C)NC(=O)c5ccccc5N4)cc3)n2)cc1 (stereo not given) | < 4.40 | < 4.40 |  |  |  |  | 
CC(C)(C)n1nnnc1C(c1ccc(C2NC(=O)c3ccccc3N2)cc1)N1CCc2ccccc2C1 (stereo not given) | < 4.40 | 5.90 |  |  |  |  | 
COc1ccc(C(C(=O)NC2CCCCC2)N(C(=O)c2cccc(Cl)c2)c2ccc(C3(C)NC(=O)c4ccccc4N3)cc2)cc1 (stereo not given) | 4.81 | < 4.40 |  |  |  |  | 
CC1(c2ccc(NC(c3ccc(Br)cc3)c3nnnn3C3CCCCC3)cc2)NC(=O)c2ccccc2N1 (stereo not given) | 5.03 | < 4.40 |  | > 400 µM |  | >42.46 | > 400 µM
CC1(c2ccc(Nc3nc(N4CCCc5ccccc54)nc(N4CCCc5ccccc54)n3)cc2)NC(=O)c2ccccc2N1 (stereo not given) | < 4.40 | 4.48 |  |  |  |  | 
CCCCCNC(c1ccc(C2NC(=O)c3ccccc3N2)cc1)c1nnnn1C(C)(C)C (stereo not given) | < 4.40 | 5.72 |  |  |  |  | 
CC1(c2ccc(Nc3nc(N4CCCCCC4)nc(N4CCCCCC4)n3)cc2)NC(=O)c2ccccc2N1 (stereo not given) | 5.59 | 5.22 |  | 237 µM | 37.4% | 91.64 | > 400 µM
CCCCNC(c1ccc(C2NC(=O)c3ccccc3N2)cc1)c1nnnn1C(C)(C)C (stereo not given) | < 4.40 | 5.25 |  |  |  |  | 
